This passage reports RP-LC retention time results from the METLIN SMRT retention time set (Domingo-Almenara et al. 2019).

The data set can be described thus: gradient 5% acetonitrile 3 min, to 50% in 2 min, to 85% in 15 min, held 3 min, 100 µL/min. As to conditions: column: Zorbax Extend-C18 2.1 x 50 mm; eluents: water / acetonitrile, 0.1% formic acid. In outline: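 Retention times of pure standards were taken from adduct peaks that were selected by computer and manually inspected. Over 3 months, mixtures of ~100 molecules were run by HPLC–quadrupole time-of-flight mass spectrometry in positive and negative ionization mode. The Zorbax Extend-C18 column (2.1 × 50 mm, 1.8 μm) ran at 100 μL/min in water and acetonitrile, each containing 0.1% formic acid, with 40 μL dead volume and 900 μL dwell volume.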
With `Cc1cc(-c2csc(S(=O)(=O)N(Cc3cccs3)C3CCCC3)c2)on1`, the RP-LC retention time was found to be 1190 s.

With `Cc1nc(-c2ccc(OC3CCN(C(=O)c4[nH]nc5c4COc4ccccc4-5)C3)cc2)no1` (stereo not given), the RP-LC retention time is 846 s.

In the case of `Cc1ccc(Cn2nc3c(S(=O)(=O)N4CCc5ccccc5C4)cccn3c2=O)cc1`, the RP-LC retention time was determined as 941 s.

In turn, `CCc1cc(C(=O)Nc2ccc(Cl)cc2)no1` gave an RP-LC retention time of 997 s.

`Cc1ccc(NC(=O)C2CCCN(S(=O)(=O)c3c[nH]c(C(=O)N4CCCCCC4)c3)C2)cc1F` (stereo not given) returned an RP-LC retention time of 652 s.

As to `COc1ccc(OC)c(C(O)CN2CCN(c3ccc(C)cc3)CC2)c1` (stereo not given), the RP-LC retention time was 653 s.

For the compound `CC(C)C(NC(=O)c1ccc([N+](=O)[O-])cc1)c1nc2ccccc2[nH]1` (stereo not given), the RP-LC retention time came out at 591 s.

The compound `Cn1c(=O)c2cc(C(=O)NCc3ccccc3C(F)(F)F)nn2c2ccccc21` showed an RP-LC retention time of 940 s.

For the compound `O=S(=O)(CCc1noc(-c2cc(F)cc(F)c2)n1)c1ccccc1`, the RP-LC retention time was 939 s.

For the compound `CCn1c(=O)c(=O)n(CC(=O)NCCc2ccco2)c2cccnc21`, the RP-LC retention time is 638 s.

With `CC1CCC(NC(=O)c2nnc(-c3ccc(S(=O)(=O)N4CCCCC4)cc3)o2)CC1` (stereo not given), the RP-LC retention time worked out at 1110 s.

The compound `Cc1cc(C)c(C)c(S(=O)(=O)N2CCn3c(nn(CC4CC4)c3=O)C2)c1C` came in with an RP-LC retention time of 943 s.

`CN(C(=O)c1ccc(-c2cnc(N3CCCC3)nc2)cc1)C1CCCCC1` displayed an RP-LC retention time of 969 s.

`Cc1cccc(Sc2nccnc2N2CCC(C(=O)NCc3cccc(Cl)c3)CC2)c1` had an RP-LC retention time of 1150 s.

As to `Cc1ccc(-c2noc(C3CCCN3S(=O)(=O)c3ccc(F)c(Cl)c3)n2)cc1` (stereo not given), the RP-LC retention time stood at 1240 s.

Consider `Cn1c(CN2CCN(C(=O)Nc3ccc4c(c3)OCO4)CC2)nc2cc(C(=O)N3CCCC3)ccc21`, for which the RP-LC retention time was determined as 607 s.

Regarding `NC(=O)[C@@H]1CCCN1C(=O)[C@H](Cc1ccccc1)NC(=O)[C@@H]1CCCN1C(=O)[C@@H](N)Cc1ccc(O)cc1`, the RP-LC retention time turned out to be 584 s.

As to `Cc1ccc(CNC(=O)CCc2ccc3nc(-c4ccccc4)[nH]c3c2)o1`, the RP-LC retention time was 625 s.

Turning to `COc1cccc(OC)c1C(=O)Nc1cc2c(cc1S(=O)(=O)c1ccc(F)cc1)n(C)c(=O)n2C`, the RP-LC retention time came to 852 s.

Turning to `Cc1cc2n(n1)CCC(=O)N2CCCC(=O)NCCCN1CCCCCC1`, the RP-LC retention time is 570 s.

As for `Cn1cc(-c2ccncc2)cc1C(=O)N1CCC2(CC1)OCCO2`, the RP-LC retention time worked out at 562 s.

`Cc1ccc(N(C)S(=O)(=O)c2ccc3c(c2)CCCC(=O)N3)cc1C` registered an RP-LC retention time of 854 s.

For `COc1cccc2sc(N3CCN(c4ccccc4)CC3)nc12`, the RP-LC retention time stood at 996 s.

`COc1cc(N)c(Cl)cc1C(=O)N[C@@H]1CCN(CCCOc2ccc(F)cc2)C[C@@H]1OC` had an RP-LC retention time of 772 s.

`O=C(C1CCN(c2ccc3nncn3n2)CC1)N1CCN(c2ncccn2)CC1` registered an RP-LC retention time of 604 s.

Compound `CNC(=O)N1CCC(C2CCN(C(=O)C3CC=CC3)C2)CC1` (stereo not given) returned an RP-LC retention time of 646 s.

Regarding `CCCNC(=O)C1CCN(c2ccc(SCC(=O)Nc3ccc(Br)cc3)nn2)CC1`, the RP-LC retention time is 689 s.

For the compound `Cc1ccnc(C(=O)Nc2ccc(Nc3cc(N4CCOCC4)nc(C)n3)cc2)n1`, the RP-LC retention time came to 566 s.

`COc1ccc(CCc2nc3nccc(-c4ccc(OC)c(OC)c4)n3n2)cc1OC` came in with an RP-LC retention time of 781 s.

In turn, `O=C1CC(C(F)(F)F)c2c(c(C(=O)O)cn2-c2cccc(Br)c2)N1` (stereo not given) had an RP-LC retention time of 795 s.

For `Cc1nnc(N2CCCC(C(=O)N3CCCCC3)C2)c2nn(-c3ccccc3)c(C)c12` (stereo not given), the RP-LC retention time is 686 s.

For the compound `CC1CC(=O)c2cnn(-c3nc4ccccc4[nH]3)c2C1` (stereo not given), the RP-LC retention time is 761 s.

`Cc1ccc(NC(=O)C(=O)c2ccc[nH]2)cc1` displayed an RP-LC retention time of 894 s.

With `Clc1ccc(CNc2c(-c3ccc4c(c3)OCCO4)nc3ncccn23)cc1`, the RP-LC retention time stood at 722 s.

Consider `CCN(CC)CCn1c(NCc2ccc(C)cc2)nc2ccccc21`, for which the RP-LC retention time came out at 584 s.

Regarding `Cc1cccc(NC(=O)C(=O)NCc2ccccn2)n1`, the RP-LC retention time was 565 s.

In turn, `Cn1cc(C(=O)NCc2ccc(F)cc2)c2cccnc21` had an RP-LC retention time of 721 s.

`O=C(CN1CCCc2nc(C3CC3)ncc2C1=O)NC1CCCC1` returned an RP-LC retention time of 673 s.

`COc1cccc(C(=O)CC2(O)C(=O)Nc3ccc(F)cc32)c1` (stereo not given): the RP-LC retention time was 707 s.

With `Cc1ccc(Cn2nc3ccc(S(=O)(=O)N4CCCCCC4)cn3c2=O)cc1`, the RP-LC retention time worked out at 1010 s.

Compound `CC(C)(C)CC(=O)NC1CCN(c2ccc(F)cc2)C1=O` (stereo not given) came in with an RP-LC retention time of 755 s.

On to `O=S(=O)(c1ccc(Cl)cc1)N1CC(F)(F)C[C@H]1CN1CCc2ccccc2C1`, for which the RP-LC retention time stood at 647 s.

As for `OCc1cc2c(cn1)[nH]c1ccccc12`, the RP-LC retention time came out at 637 s.

For the compound `CCNC(=O)N(CC(=O)N1CCc2sccc2C1COc1ccccc1)C(C)CC` (stereo not given), the RP-LC retention time turned out to be 892 s.

For `CC(C)Cn1cc(C(=O)O)c(S(=O)(=O)N2CCN(C(C)C)CC2)n1`, the RP-LC retention time came out at 609 s.

The compound `CCn1c(C)cc(O)c(C(c2ccccc2[N+](=O)[O-])c2c(O)cc(C)n(CC)c2=O)c1=O` displayed an RP-LC retention time of 884 s.

Consider `CC(=O)N(Cc1nn(C)c2c1CN(S(=O)(=O)c1cccc(Cl)c1)CC2)c1ccccc1`, for which the RP-LC retention time worked out at 783 s.

Turning to `CCn1c(=O)c(NCCc2ccc(Cl)cc2)nc2ccncc21`, the RP-LC retention time stood at 596 s.

Compound `COC(=O)c1ccc2c(=O)n(Cc3ccc(F)cc3)c(N3CCOCC3)nc2c1` showed an RP-LC retention time of 975 s.

Regarding `COCCC(=O)NC1CCN(C2=NS(=O)(=O)C(c3cccc(Cl)c3)=C2C)CC1`, the RP-LC retention time was 722 s.

`CCc1nnc2ccc(NC(=O)Nc3cccc(F)c3)cn12` had an RP-LC retention time of 710 s.

`Cc1noc([C@@H]2CC(F)(F)CN2C(=O)c2ocnc2C)n1` came in with an RP-LC retention time of 685 s.

For `CCC(=O)NC(C)c1nc(-c2ccccc2Cl)no1` (stereo not given), the RP-LC retention time amounted to 740 s.

With `Cc1cccc(N2CCN(C(=O)C3CCN(c4cnc5nccnc5c4)CC3)CC2)c1`, the RP-LC retention time was determined as 749 s.

Regarding `CNC(=O)c1c(NC(=O)c2ccccc2Cl)sc2c1CCC2`, the RP-LC retention time was determined as 1010 s.

`Cn1ncc2c(N3CCSCC3)nc(C(=O)NCc3ccncc3)nc21`: the RP-LC retention time is 566 s.

In turn, `CCc1cc(=O)n(CC(=O)Nc2ccc(OC)c(Cl)c2)c(N2CCOCC2)n1` registered an RP-LC retention time of 772 s.

Regarding `CC(NC(=O)c1cc(F)cc(F)c1)C(=O)Nc1nc2ccccc2[nH]1` (stereo not given), the RP-LC retention time came to 655 s.

The compound `COc1ccc(-c2ccc(CNCC3CCNCC3)o2)cc1Cl` had an RP-LC retention time of 579 s.

As for `O=C(NC(=O)c1c(Cl)nc2sccn12)Nc1ccc(Cl)cc1`, the RP-LC retention time came out at 977 s.

In the case of `O=C(NCCN1CCOCC1)C1CCc2sc(C(=O)N3CCCCC3)cc2C1` (stereo not given), the RP-LC retention time was found to be 563 s.

For the compound `Cc1nn2c(CNC(=O)Cc3ccsc3)c(-c3ccccc3)nc2s1`, the RP-LC retention time was 866 s.

`CCc1cccc(Nc2nc(C)cc(=O)n2CC(=O)Nc2ccc3c(c2)OCCO3)c1` came in with an RP-LC retention time of 1040 s.

Turning to `CSc1cccc(NC(=O)c2cn3c(n2)CCCC3)c1`, the RP-LC retention time was found to be 630 s.

The compound `O=C(CSc1nnc(NC(=O)c2ccccc2C(F)(F)F)s1)NC1CCCCC1` displayed an RP-LC retention time of 781 s.

As for `Cc1cccc2nnc(N3CCN(C(=O)c4ccc(Br)cc4)CC3)n12`, the RP-LC retention time is 683 s.

In turn, `Cc1nc(-c2cc3cccc(C)c3nc2N2CCN(c3ccc(F)cc3)CC2)no1` returned an RP-LC retention time of 732 s.

Compound `CC(C)n1c(N2CCN(C(=O)c3cc4ccccc4[nH]3)CC2)cc(=O)n(C(C)C)c1=O` registered an RP-LC retention time of 915 s.

As to `O=C(Cn1nc2n(c1=O)CCCC2)NCc1ccc2c(c1)OCO2`, the RP-LC retention time worked out at 619 s.

For the compound `COc1ccc(NC(=O)Nc2c(-c3ccc(F)cc3)nc3ccccn23)cc1F`, the RP-LC retention time came out at 668 s.

Turning to `CC(C)(C)NC(=O)N1CCC(CNC(=O)C(=O)Nc2cc(F)ccc2F)CC1`, the RP-LC retention time is 811 s.

In turn, `O=C(c1cc(-c2ccccc2)n[nH]1)N1CCC2(CC1)N=C(c1ccccc1)NO2` returned an RP-LC retention time of 785 s.

`CC1CCN(c2cc(-n3cnc(C(=O)N4CCN(c5ncccn5)CC4)c3)ncn2)CC1` had an RP-LC retention time of 880 s.

In the case of `Cc1sc2cc(C(=O)N3CCN(c4ccccn4)CC3)[nH]c2c1CN1CCOCC1`, the RP-LC retention time turned out to be 568 s.

Compound `Cc1cc(=O)n(CC(=O)NCc2ccc3c(c2)OCO3)c(N2CCc3ccccc3C2)n1` returned an RP-LC retention time of 718 s.

`CC(=O)c1ccc(NC(=O)Cn2cnc3nc4c(cc3c2=O)CC(C)CC4)cc1` (stereo not given) registered an RP-LC retention time of 738 s.

As to `O=C(NCC(c1ccc2c(c1)OCO2)N1CCN(c2ccccc2F)CC1)c1cnccn1` (stereo not given), the RP-LC retention time was found to be 593 s.

The compound `Cc1cc2nc(C(F)(F)F)c(=O)n(C(C)C(=O)NCCN(C)C)c2cc1C` (stereo not given) showed an RP-LC retention time of 695 s.

Regarding `Cc1ccc(-c2csc(Nc3cc(C)ccn3)n2)cc1`, the RP-LC retention time was 843 s.

For the compound `N#Cc1cccc(-c2cn3c(n2)N(C(=O)c2cccc(F)c2)CCC3)c1`, the RP-LC retention time came out at 749 s.
